Test results from US9340559B2, “Proteasome inhibitor delanzomib for use in the treatment of lupus” (Cephalon, Inc., priority 2011, dated 2016).

Assays:
MRL/lpr mice [1] = assay: Renal histopathology scoring (kidney IC-GN), MRL/lpr mice; type: in vivo, mouse
Procedure: (§1) For histological analyses, the left kidney from each animal is removed and fixed in 10% buffered neutral 10% formalin (EMD) for 48 hours on an orbital rocker at 25° C., then washed overnight with running dH2O and stored in 70% ethanol at 4° C. until ready to be processed. Kidney stains used for histological analyses included hematoxylin and eosin (H&E), Periodic Acid Schiff (PAS) and Trichrome stains (Wistar Institute, Philadelphia, Pa.). All 3 stained sections are used by the pathologist for scoring purposes. All histological scoring is performed blinded and by an independent board certified veterinary medical pathologist (Julie Engiles, VMD, DACVP). Multiple stains are used to determine score values. Images in FIG. 17 show worst affected area of section selected blindly by the pathologist.
(§2) Kidney IC-GN Scoring Method (Smith, Dong et al. 2007):
(§3) 1. Glomerular cellularity—Score 1-5: Null, low, moderate, high, severe
(§4) 2. Glomerular necrosis—Score 1-5: Null, low, moderate, high, severe
(§5) 3. Glomerulosclerosis—Score 1-5: Null, low, moderate, high, severe
(§6) 4. Interstitial infiltration—Score 1-5: Null, low, moderate, high, severe
(§7) 5. Tubular atrophy—Score 1-5: Null, low, moderate, high, severe
(§8) 6. Interstitial fibrosis—Score 1-5: Null, low, moderate, high, severe
(§9) 7. Vasculitis—Score 1-5: Null, low, moderate, high, severe
(§10) Specific Pathologist Definitions: • Necrosis is defined by the presence of nuclear debris/pyknosis within the glomerular tuft indicative of “necrosis.” In many samples, this is a very mild, rare finding within only a very few segments of the glomerular tuft. Also consider effacement of the glomerular tuft by PAS positive, Trichrome negative material necrosis. • Glomerular sclerosis is defined by increased fibroplasia or fibrosis within the glomerular tuft or capsule. […] Most of the vascular changes are mild and could be considered “arteriosclerosis” characterized by proliferation of the smooth muscle cells, and hyalinization of the extracellular matrix. This change may reflect hypertension secondary to glomerular pathology. In very few animals is there overt “vasculitis.” Most inflammatory changes are within the walls of the blood vessels, with little to no damage to the endothelium, and no overt hemorrhage/fibrin leakage. Many also have perivascular rims of fibroblasts.

MRL/lpr mice [2] = assay: Spleen plasma cells by flow cytometry, MRL/lpr mice
NZM mice = assay: Renal histopathology scoring (kidney IC-GN), NZM mice (Example 2); type: in vivo, mouse
Procedure: as §1, with “neutral” for “neutral 10%”, “39” for “17”
as §2, §3, §4, §5, §6, §7, §8, §9, §10

CC(C)C[C@H](NC(=O)[C@@H](NC(=O)c1cccc(-c2ccccc2)n1)[C@@H](C)O)B(O)O [COMPOUND A, [(1R)-1-[[(2S,3R)-3-hydroxy-2-[6-phenyl-pyridine-2-carbonyl)amino]-1-oxobutyl]amino]-3-methylbutylboronic acid]
decrease in average renal pathology score vs vehicle (MRL/lpr mice [1]; COMPOUND A treatment groups): 1.55-1.86 fold
EOS glomerular cellularity, percent change vs vehicle (MRL/lpr mice [1]; G1: 3 mg/kg iv, 1× wk): −41%
EOS glomerular necrosis, percent change vs vehicle (MRL/lpr mice [1]; G1: 3 mg/kg iv, 1× wk): −38%
EOS glomerulosclerosis, percent change vs vehicle (MRL/lpr mice [1]; G1: 3 mg/kg iv, 1× wk): −39%
EOS interstitial infiltration, percent change vs vehicle (MRL/lpr mice [1]; G1: 3 mg/kg iv, 1× wk): −42%
EOS vasculitis, percent change vs vehicle (MRL/lpr mice [1]; G1: 3 mg/kg iv, 1× wk): −33%
Kidney EOS interstitial fibrosis, percent change vs vehicle (MRL/lpr mice [1]; G1: 3 mg/kg iv, 1× wk): −31%
Kidney EOS tubular atrophy, percent change vs vehicle (MRL/lpr mice [1]; G1: 3 mg/kg iv, 1× wk): −35%
EOS glomerular cellularity, percent change vs vehicle (MRL/lpr mice [1]; G2: 3 mg/kg iv, 2× wk): −36%
EOS glomerular necrosis, percent change vs vehicle (MRL/lpr mice [1]; G2: 3 mg/kg iv, 2× wk): −47%
EOS glomerulosclerosis, percent change vs vehicle (MRL/lpr mice [1]; G2: 3 mg/kg iv, 2× wk): −45%
EOS interstitial infiltration, percent change vs vehicle (MRL/lpr mice [1]; G2: 3 mg/kg iv, 2× wk): −61%
EOS vasculitis, percent change vs vehicle (MRL/lpr mice [1]; G2: 3 mg/kg iv, 2× wk): −45%
Kidney EOS interstitial fibrosis, percent change vs vehicle (MRL/lpr mice [1]; G2: 3 mg/kg iv, 2× wk): −42%
Kidney EOS tubular atrophy, percent change vs vehicle (MRL/lpr mice [1]; G2: 3 mg/kg iv, 2× wk): −46%
EOS glomerular cellularity, percent change vs vehicle (MRL/lpr mice [1]; G3: 10 mg/kg po, 2× wk): −33%
EOS glomerular necrosis, percent change vs vehicle (MRL/lpr mice [1]; G3: 10 mg/kg po, 2× wk): −31%
EOS glomerulosclerosis, percent change vs vehicle (MRL/lpr mice [1]; G3: 10 mg/kg po, 2× wk): −33%
EOS interstitial infiltration, percent change vs vehicle (MRL/lpr mice [1]; G3: 10 mg/kg po, 2× wk): −50%
EOS vasculitis, percent change vs vehicle (MRL/lpr mice [1]; G3: 10 mg/kg po, 2× wk): −43%
Kidney EOS interstitial fibrosis, percent change vs vehicle (MRL/lpr mice [1]; G3: 10 mg/kg po, 2× wk): −27%
Kidney EOS tubular atrophy, percent change vs vehicle (MRL/lpr mice [1]; G3: 10 mg/kg po, 2× wk): −42%
renal interstitial infiltration reduction vs vehicle (MRL/lpr mice [1]; all 3 COMPOUND A treatment groups): up to 61%
EOS plasma cells, percent change vs vehicle (MRL/lpr mice [2]; G1: 3 mg/kg iv, 1× wk): −67%
EOS plasma cells, percent change vs vehicle (MRL/lpr mice [2]; G2: 3 mg/kg iv, 2× wk): −67%
EOS plasma cells, percent change vs vehicle (MRL/lpr mice [2]; G3: 10 mg/kg po, 2× wk): −67%
spleen plasma cells decrease vs vehicle (MRL/lpr mice [2]; Groups 1-3 (each)): 67%
p, glomerular cellularity (GC) vs G3 Bortezomib 0.3 mg/kg 1× wk (NZM mice; 3 mg/kg 1× wk): p < 0.01
p, glomerular cellularity (GC) vs G6 DEX 1.5 mg/kg 1× wk (NZM mice; 3 mg/kg 1× wk): p < 0.01
p, glomerular cellularity (GC) vs G7 Vehicle (NZM mice; 3 mg/kg 1× wk): p < 0.001
p, glomerular necrosis (GN) vs G3 Bortezomib 0.3 mg/kg 1× wk (NZM mice; 3 mg/kg 1× wk): p < 0.05
p, glomerular necrosis (GN) vs G6 DEX 1.5 mg/kg 1× wk (NZM mice; 3 mg/kg 1× wk): p < 0.01
p, glomerulosclerosis (GS) vs G3 Bortezomib 0.3 mg/kg 1× wk (NZM mice; 3 mg/kg 1× wk): p < 0.001
p, glomerulosclerosis (GS) vs G6 DEX 1.5 mg/kg 1× wk (NZM mice; 3 mg/kg 1× wk): p < 0.001
p, glomerulosclerosis (GS) vs G7 Vehicle (NZM mice; 3 mg/kg 1× wk): p < 0.01
p, interstitial fibrosis (IF) vs G3 Bortezomib 0.3 mg/kg 1× wk (NZM mice; 3 mg/kg 1× wk): p < 0.01
p, interstitial fibrosis (IF) vs G6 DEX 1.5 mg/kg 1× wk (NZM mice; 3 mg/kg 1× wk): p < 0.001
p, interstitial fibrosis (IF) vs G7 Vehicle (NZM mice; 3 mg/kg 1× wk): p < 0.01
p, interstitial infiltration (II) vs G6 DEX 1.5 mg/kg 1× wk (NZM mice; 3 mg/kg 1× wk): p < 0.01
p, interstitial infiltration (II) vs G7 Vehicle (NZM mice; 3 mg/kg 1× wk): p < 0.05
p, tubular atrophy (TA) vs G3 Bortezomib 0.3 mg/kg 1× wk (NZM mice; 3 mg/kg 1× wk): p < 0.001
p, tubular atrophy (TA) vs G6 DEX 1.5 mg/kg 1× wk (NZM mice; 3 mg/kg 1× wk): p < 0.001
p, tubular atrophy (TA) vs G7 Vehicle (NZM mice; 3 mg/kg 1× wk): p < 0.001
p, vasculitis (VA) vs G6 DEX 1.5 mg/kg 1× wk (NZM mice; 3 mg/kg 1× wk): p < 0.01
p, vasculitis (VA) vs G7 Vehicle (NZM mice; 3 mg/kg 1× wk): p < 0.01
p, glomerular cellularity (GC) vs G3 Bortezomib 0.3 mg/kg 1× wk (NZM mice; 3 mg/kg 2× wk): p < 0.01
p, glomerular cellularity (GC) vs G6 DEX 1.5 mg/kg 1× wk (NZM mice; 3 mg/kg 2× wk): p < 0.01
p, glomerular cellularity (GC) vs G7 Vehicle (NZM mice; 3 mg/kg 2× wk): p < 0.001
p, glomerular necrosis (GN) vs G3 Bortezomib 0.3 mg/kg 1× wk (NZM mice; 3 mg/kg 2× wk): p < 0.05
p, glomerular necrosis (GN) vs G6 DEX 1.5 mg/kg 1× wk (NZM mice; 3 mg/kg 2× wk): p < 0.01
